Reference: article PMC12234328, “A naphthalimide derivative exerts potent antiplatelet and antithrombotic activities without a bleeding tendency” (Frontiers in Pharmacology, 2025)

Key:
[1] = system: human platelet suspensions stimulated with collagen; assay: Collagen-induced platelet aggregation (turbidimetric, lumi-aggregometer); assay type: cell-based
Text: This study received approval from the Taipei Medical University–Joint Institutional Review Board (TMU-JIRB-No. N202003148) and adhered to the principles of the Declaration of Helsinki. Informed consent was obtained from all volunteers before their participation. Human platelets were washed and prepared according to previously established methods ([Lu et al., 2019]). Whole blood was collected from healthy participants who had not taken any medications, including nonsteroidal anti-inflammatory drugs or aspirin, in the preceding 2 weeks. The blood was drawn into polypropylene tubes containing an acid citrate–dextrose solution (9:1, v/v). After mixing, the samples were centrifuged at 120 g for 10 min. The upper layer of platelet-rich plasma was collected and supplemented with prostaglandin E1 and heparin. Following further centrifugation at 500 g for 10 min, the platelet pellets were washed twice. The platelets were then resuspended in Tyrode’s solution containing 3.5 mg/mL bovine serum albumin (B.S.A.) to create platelet suspensions. The final Ca^2+ concentration of the platelet suspensions (3.6 × 10^8 cells/mL) was 1 mM.
Platelet aggregation was measured using a lumi-aggregometer (Payton, Scarborough, Canada) through the turbidimetric method ([Lu et al., 2019]). Human platelet suspensions (3.6 × 10^8 cells/mL) were treated with compound 6 (1–50 μM) or an isovolumetric solvent control (0.1% DMSO) for 3 min. Subsequently, various agonists were added and platelet aggregation was then recorded for an additional 6 min.
FIGURE 2 Effects of compound 6 on human platelet aggregation triggered by various agonists. (A–C) Washed platelets (3.6 × 10^8 cells/mL) were treated with compound 6 (1–50 μM) or dimethyl sulfoxide (DMSO; solvent control) before adding 1 μg/mL collagen (A), 0.02 U/mL thrombin (B), and 1 μM U46619 (C). Panels A–C present the curve of platelet aggregation, and panel D presents the statistical analysis of panels A–C. Data (D) are presented as means ± SEM (n = 4). ###p < 0.001 compared with the DMSO group.

recombinant human GPVI = target: T1, recombinant human GPVI (Homo sapiens, UniProt Q9HCN6); assay: Surface plasmon resonance binding assay (OpenSPR); conditions: his-tagged recombinant GPVI on NTA chip, compound at 0.1 and 1 μM; read-out: KD (equilibrium dissociation constant)
T1 sequence (Q9HCN6 21-267 limits assumed): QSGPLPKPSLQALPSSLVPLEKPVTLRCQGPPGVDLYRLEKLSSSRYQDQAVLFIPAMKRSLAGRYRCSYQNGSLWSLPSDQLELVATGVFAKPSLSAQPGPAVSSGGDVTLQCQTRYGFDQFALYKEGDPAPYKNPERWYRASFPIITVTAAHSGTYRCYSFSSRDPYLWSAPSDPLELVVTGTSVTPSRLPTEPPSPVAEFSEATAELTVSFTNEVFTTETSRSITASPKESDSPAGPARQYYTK
Procedure: Surface plasmon resonance (SPR) analysis was performed using an OpenSPR instrument (Nicoya, Kitchener, Canada). A nitrilotriacetic acid (NTA) sensor chip was installed in the OpenSPR instrument. Running buffer (phosphate-buffered saline) was pumped at the maximum flow rate, and 80% isopropanol was injected to remove any bubbles. Subsequently, 200 μL of a 200 mM imidazole solution was injected to prime the sensor surface. After rinsing the chip with running buffer, 200 μL of a 40 mM NiCl2 solution was used to activate the NTA chip. After 5 min of interaction time, his-tagged recombinant GPVI proteins were bound to the NTA chip by perfusing the GPVI protein solution at a flow rate of 20 μL/min. Solutions of compound 5 or compound 6 (0.1 and 1 μM) were then injected. The equilibrium dissociation constant (KD) was determined using the OpenSPR system (Nicoya).
An SPR binding assay was performed. First, recombinant human GPVI was coated on the NTA sensor chip. Solutions of compound 5 and compound 6 (0.1 and 1 μM) were then perfused on the chip, and the KD was determined using the OpenSPR system (Nicoya Lifesciences).
FIGURE 7 Direct binding of compound 6 on GPVI. […] Equilibrium dissociation constant (KD) were determined using the OpenSPR system. […]

[2] = system: tail bleeding (hemostasis); assay: Tail-bleeding assay; assay type: in vivo; conditions: 0.3, 0.6 or 1.2 mg/kg, mice, n = 6
Procedure: For the tail-bleeding assay, the mice were anesthetized with an oxygen–air mixture containing 3% isoflurane at a gas flow rate of 1.5–2 L/min. A bolus dose of compound 6 (0.3 mg/kg, 0.6 mg/kg, or 1.2 mg/kg), DMSO (solvent control; 1.1 g/kg), or aspirin (20 mg/kg; positive control) was intraperitoneally administered for 30 min. A 3-mm incision was then made at the tail tip to induce bleeding. The bleeding tail stump was immediately immersed in saline, and the bleeding time was recorded. […] A formula for dose translation based on the […] was used to calculate the dose for use in the mice ([Reagan-Shaw et al., 2008]).
FIGURE 3 Effects of compound 6 on thrombosis and hemostasis in mice. Mice were treated with compound 6 (0.3, 0.6, or 1.2 mg/kg), DMSO (solvent control), or aspirin (20 mg/kg; positive control) via intravenous route for 10 min. (A) The microthrombus formation (arrows) in mesenteric venules. Scale bar = 30 μm. […] Each point on the plot indicates a mouse (n = 6). Data (A,B) are presented as means ± SEM (n = 6). *p < 0.05 and ***p < 0.001 compared with the DMSO group.

**Q.** With `CCCCN1C(=O)c2cccc3c(NCCNC(=O)C45CC6CC(CC(C6)C4)C5)ccc(c23)C1=O` [compound 6] as the compound, how does the “Antiplatelet effect at the same concentration, compound 6 versus compound 5” value ([1]; 5 μM, collagen 1 μg/mL, Supplementary Figure S1) read?
**A.** The value was “better antiplatelet effects than compound 5”.

**Q.** What about the IC50 ([1]; Platelet, washed human platelets, 1 μg/mL collagen) of the same compound?
**A.** The IC50 was roughly 2.5 µM.

**Q.** What about the “Potency in inhibiting collagen-induced platelet aggregation relative to compound 5” value ([1]; comparison with ref Shih et al., 2021) of the same compound?
**A.** Its value is “twice as high”.

**Q.** What about the Kd (recombinant human GPVI) of the same compound?
**A.** Its Kd is 0.16 µM.

**Q.** And the Duration of tail-bleeding [2]?
**A.** The Duration of tail-bleeding was “did not significantly affect”.
